Read-outs that look alike come from different tables or passages of the source.

This note sets out measurements from paper PMC6328172, “5-HT2 receptor binding, functional activity and selectivity in N-benzyltryptamines” (PLoS ONE, 2019).

For experiment [1], the target named is T1, human 5-HT2C receptor (Homo sapiens, UniProt P28335).
T1 construct: expressed in transfected cells; host or cells: HeLa (HeLa-5-HT2C cell line)
T1 sequence (P28335 33-458): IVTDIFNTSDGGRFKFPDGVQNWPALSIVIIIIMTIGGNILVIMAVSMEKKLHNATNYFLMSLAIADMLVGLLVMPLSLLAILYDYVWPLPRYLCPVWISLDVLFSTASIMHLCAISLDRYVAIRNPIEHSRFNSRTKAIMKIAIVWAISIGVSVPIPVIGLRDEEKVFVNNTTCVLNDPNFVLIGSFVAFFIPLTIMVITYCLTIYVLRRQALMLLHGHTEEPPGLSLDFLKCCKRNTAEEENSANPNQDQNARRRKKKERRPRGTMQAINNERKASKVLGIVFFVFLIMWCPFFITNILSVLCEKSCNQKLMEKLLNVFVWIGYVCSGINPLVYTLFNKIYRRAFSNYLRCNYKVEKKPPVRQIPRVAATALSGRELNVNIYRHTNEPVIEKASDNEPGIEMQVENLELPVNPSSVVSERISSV
The experiment can be described thus: Ca2+ mobilization in HeLa h5-HT2C cells. Format: cell-based. Particulars: for EC50: no unit in the table, nM; for Emax: HeLa, read-out: 5-HT2C % Emax; for Selectivity 5-HT2C/2A (functional, in parentheses): from EC50 values, Table 2.

The target in experiment [2] is T2, human 5-HT2A receptor (Homo sapiens, UniProt P28223).
T2 construct: expressed in transfected cells; host or cells: CHO (CHO-5-HT2A cell line)
T2 sequence (P28223 whole entry): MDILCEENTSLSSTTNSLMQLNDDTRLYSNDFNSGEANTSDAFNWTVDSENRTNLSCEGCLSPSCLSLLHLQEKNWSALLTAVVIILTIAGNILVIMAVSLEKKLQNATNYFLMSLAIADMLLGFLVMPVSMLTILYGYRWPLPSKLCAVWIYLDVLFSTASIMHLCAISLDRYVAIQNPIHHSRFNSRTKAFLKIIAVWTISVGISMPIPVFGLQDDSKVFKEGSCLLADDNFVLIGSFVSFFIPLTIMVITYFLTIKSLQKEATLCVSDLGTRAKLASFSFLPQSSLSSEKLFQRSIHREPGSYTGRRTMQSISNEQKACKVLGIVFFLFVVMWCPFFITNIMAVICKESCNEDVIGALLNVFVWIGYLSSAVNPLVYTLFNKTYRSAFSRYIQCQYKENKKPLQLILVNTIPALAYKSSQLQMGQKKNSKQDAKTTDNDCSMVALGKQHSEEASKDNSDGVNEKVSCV
Nature of the experiment: Competition binding to the human 5-HT2A receptor ([3H]ketanserin, CHO-5-HT2A membranes). Particulars: for Selectivity 5-HT2A/2C (binding): from Ki values, Table 1; for Ki: human receptor, [3H]ketanserin displacement, no unit in the table, nM, read-out: 5-HT2A Ki (in parentheses) (converted).

The target of experiment [3] is T1, human 5-HT2C receptor. The experiment can be described thus: Competition binding to the human 5-HT2C receptor ([3H]mesulergine, HeLa-5-HT2C membranes). Particulars: for Selectivity 5-HT2C/2A (binding, in parentheses): from Ki values, Table 1; for Ki: human receptor, [3H]mesulergine displacement, no unit in the table, nM, read-out: 5-HT2C Ki (in parentheses) (converted).

Experiment [4] deals with human 5-HT2B receptor (Homo sapiens, UniProt P41595). The experiment can be described thus: Competition binding to the human 5-HT2B receptor ([3H]LSD, CHO-5-HT2B membranes).
Sequence of human 5-HT2B receptor (P41595 whole entry): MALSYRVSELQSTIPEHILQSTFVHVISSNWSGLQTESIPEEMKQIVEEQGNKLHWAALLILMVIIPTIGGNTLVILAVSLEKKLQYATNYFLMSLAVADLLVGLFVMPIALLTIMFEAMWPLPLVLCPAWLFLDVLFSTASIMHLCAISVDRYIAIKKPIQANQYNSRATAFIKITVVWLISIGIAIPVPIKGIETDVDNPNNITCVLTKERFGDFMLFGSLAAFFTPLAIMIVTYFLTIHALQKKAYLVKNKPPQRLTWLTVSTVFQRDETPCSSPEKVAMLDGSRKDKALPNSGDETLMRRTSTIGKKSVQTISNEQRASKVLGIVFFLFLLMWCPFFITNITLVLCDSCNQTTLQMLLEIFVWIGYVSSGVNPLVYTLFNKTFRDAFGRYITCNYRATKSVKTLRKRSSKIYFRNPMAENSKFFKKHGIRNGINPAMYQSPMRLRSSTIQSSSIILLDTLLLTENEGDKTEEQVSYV
Experiment [5] deals with T2, human 5-HT2A receptor. The experiment can be described thus: Ca2+ mobilization in CHO h5-HT2A cells. It is filed as cell-based. Particulars: for Selectivity 5-HT2A/2C (functional): from EC50 values, Table 2; for Emax: relative efficacy, % of response to 5-HT.
Where [6] appears, read: Ca2+ mobilization, read-out: 5-HT2C EC50 (in parentheses) (converted).
The mark [7] stands for this setting: Ca2+ mobilization, pEC50 ± SEM, read-out: 5-HT2A pEC50 (converted).
[8] abbreviates: Ca2+ mobilization, no unit in the table, nM, read-out: 5-HT2A EC50 (in parentheses) (converted).

For `COc1ccc(Cl)cc1CNCCc1c[nH]c2ccccc12` [Compound 28, N-(5-Chloro-2-methoxybenzyl)-[2-(1H-indol-3-yl)ethyl]amine], the values for the EC50 in experiment [1] (setting [6]), in experiment [5] (setting [7]) and in experiment [5] (setting [8]) were 240 nM, 8910 nM and 8910 nM, respectively. For the same compound, the Emax in experiment [1] stood at 110 ± 3.35%; in experiment [5] it was 69.2 ± 2.67%. Moreover, the “Selectivity 5-HT2C/2A (functional, in parentheses)” value in experiment [1] was 37.2. Besides, the “Selectivity 5-HT2A/2C (binding)” value in experiment [2] was found to be 1.35. For the same compound, the inhibition constant Ki in experiment [2] was 977 nM; in experiment [3], 1320 nM; in experiment [4], 794 nM. For the same compound, the “Selectivity 5-HT2C/2A (binding, in parentheses)” value in experiment [3] is reported as 0.74. Moreover, in experiment [5], the “Selectivity 5-HT2A/2C (functional)” value was found to be 0.027.

On to `Clc1ccccc1CNCCc1c[nH]c2ccccc12` [Compound 5, N-(2-Chlorobenzyl)-[2-(1H-indol-3-yl)ethyl]amine], for which the EC50 in experiment [1] (setting [6]) was 195 nM. In addition, in experiment [1], the Emax worked out at 87.1 ± 4.96% and the “Selectivity 5-HT2C/2A (functional, in parentheses)” value is 2.40. In experiment [2], the “Selectivity 5-HT2A/2C (binding)” value turned out to be 2.04 and the Ki is 12 nM. In addition, in experiment [3], the “Selectivity 5-HT2C/2A (binding, in parentheses)” value was 0.49 and the inhibitory constant (Ki) was 24.6 nM. In experiment [4], this compound showed a Ki of 23.4 nM. Also, the “times less potent than its 5-methoxytryptamine analog, h5-HT2A functional assay” value in experiment [5] (3 vs 38, 5 vs 39) is ~40 times. Also, the EC50 in experiment [5] (setting [8]) was 468 nM. In addition, in experiment [5], the “Selectivity 5-HT2A/2C (functional)” value was 0.42 and the Emax is 25.5 ± 1.16%.

Turning to `Oc1c(F)cccc1CNCCc1c[nH]c2ccccc12` [Compound 22, N-(3-Fluoro-2-hydroxybenzyl)-[2-(1H-indol-3-yl)ethyl]amine], the EC50 in experiment [1] (setting [6]) is 17 nM. Moreover, in experiment [1], the Emax was 104 ± 4.96% and the “Selectivity 5-HT2C/2A (functional, in parentheses)” value amounted to 9.55. In addition, in experiment [2], the “Selectivity 5-HT2A/2C (binding)” value amounted to 0.82 and the Ki is 209 nM. Also, in experiment [3], the “Selectivity 5-HT2C/2A (binding, in parentheses)” value amounted to 1.22 and the Ki was 178 nM. The compound also had a Ki in experiment [4] of 129 nM. Further, the EC50 in experiment [5] (setting [8]) is 162 nM. In addition, in experiment [5], the “Selectivity 5-HT2A/2C (functional)” value is on record as 0.105 and the Emax is 53.6 ± 4.49%.

Turning to `COc1ccc(CNCCc2c[nH]c3ccccc23)cc1OC` [Compound 36, N-(3,4-Dimethoxybenzyl)-[2-(1H-indol-3-yl)ethyl]amine], the EC50 in experiment [1] (setting [6]) was 57.5 nM. In experiment [1], the Emax stood at 100 ± 2.85% and the “Selectivity 5-HT2C/2A (functional, in parentheses)” value was determined as 38.9. Moreover, in experiment [2], the “Selectivity 5-HT2A/2C (binding)” value is recorded as 0.92 and the inhibition constant Ki was 1290 nM. Besides, in experiment [3], the “Selectivity 5-HT2C/2A (binding, in parentheses)” value is on record as 1.09 and the Ki is 1200 nM. In addition, the Ki in experiment [4] is 288 nM. Also, the EC50 in experiment [5] (setting [8]) was 2240 nM. Moreover, in experiment [5], the “Selectivity 5-HT2A/2C (functional)” value is 0.026 and the Emax turned out to be 50.5 ± 8.27%.

As to `Oc1c(Br)cccc1CNCCc1c[nH]c2ccccc12` [Compound 21, N-(3-Bromo-2-hydroxybenzyl)-[2-(1H-indol-3-yl)ethyl]amine], the EC50 in experiment [1] (5-HT2C EC50 (in parentheses), Ca2+ mobilization) was 27 nM; in experiment [1] (setting [6]), 27.5 nM; in experiment [5] (setting [7]), 15800 nM; in experiment [5] (setting [8]) it was 15800 nM. Moreover, the “times less potent than lorcaserin” value in experiment [1] (5-HT2C functional potency) is given as “about 3 times”. Moreover, in experiment [1] (Ca2+ mobilization), the “functional activity at h5-HT2C receptor (in words)” value is given as “full agonist”. Moreover, the Emax in experiment [1] is 98.8 ± 2.83%; in experiment [5], 40.4 ± 6.23%. Further, in experiment [1], the “Selectivity 5-HT2C/2A (functional, in parentheses)” value was found to be 575. The “Selectivity 5-HT2A/2C (binding)” value in experiment [2] was 9.8. The values for the Ki in experiment [2], in experiment [3] and in experiment [4] were 14.1 nM, 138 nM and 15.5 nM, respectively. Moreover, the “Selectivity 5-HT2C/2A (binding, in parentheses)” value in experiment [3] is 0.10. Further, the “functional activity at h5-HT2A receptor (in words)” value in experiment [5] (Ca2+ mobilization) was “extremely weak h5-HT2A partial agonist”. The “5-HT2A pEC50” value in experiment [5] (Ca2+ mobilization, pEC50 ± SEM) was found to be 4.80. The “Selectivity 5-HT2A/2C (functional)” value in experiment [5] is on record as 0.0017.
